In patent publication US9801901B2, “Alginate oligomers for use in overcoming multidrug resistance in bacteria” (priority 2009, dated 2017):
Converted amounts (≈) assume the structure as drawn. Read-outs that look alike come from different tables or passages of the source. Marks after values point to notes of the source that are not given here.

How the values were obtained:
[1] = system: Pseudomonas aeruginosa ATCC 39324, mucoid type strain (R79); assay: MIC assay, CAMHB with alginate oligomer, no visible growth; assay type: cell-based; conditions: Pseudomonas aeruginosa, ATCC39324, Table 1, R79, read-out: MIC
[2] = system: V19 non MDR Acinetobacter baumannii; assay: MIC assay, CAMHB with M-block alginate oligomer, no visible growth; assay type: cell-based; conditions: Table 7, V19 non MDR Acin. baum
Excerpt: The study described in Example 1 was repeated with the following strains of Acinetobacter baumannii, antibiotics and M-block alginate oligomer in place of OligoG CF-5/20 as detailed in Table 7. The M-block oligomer is 100% M with a DPn of 15 to 18,

[3] = system: Pseudomonas aeruginosa CFA 24-1, clinical mucoid strain (R80); assay: MIC assay, CAMHB with alginate oligomer, no visible growth; assay type: cell-based; conditions: Pseudomonas aeruginosa, Table 1, R80, read-out: MIC
[4] = system: Klebsiella pneumoniae KP05 506 from India (V3); assay: as above; assay type: cell-based; conditions: for MIC: Klebsiella pneumoniae, Table 1, V3 KP05 506, read-out: MIC
[5] = system: V23 1322 Burkholderia cepacia; assay: as above; assay type: cell-based
[6] = system: Pseudomonas aeruginosa MDR R22 from China (V1); assay: as above; assay type: cell-based; conditions: Pseudomonas aeruginosa, Table 1, V1 MDR R22 PA, read-out: MIC
Excerpt: The study described in Example 1 was repeated with the following strains of bacteria and antibiotics as detailed in Tables 4, 5 and 6.

[7] = system: V9 (Egypt) Acinetobacter baumannii; assay: as above; assay type: cell-based; conditions: Table 5, V9 MDR Acin. baum
[8] = system: PA01 Pseudomonas aeruginosa ATCC 15692; assay: MIC assay, two-fold antibiotic dilutions in CAMHB with alginate oligomer, no visible growth; assay type: cell-based; conditions: Pseudomonas aeruginosa, ATCC15692, Table 1, PA01, read-out: MIC
[9] = system: V12 5725 (Wales) Klebsiella pneumoniae; assay: MIC assay, CAMHB with alginate oligomer, no visible growth; assay type: cell-based; conditions: Table 5, V12 MDR Kleb pneu
[10] = system: Acinetobacter baumannii (MDR ACB, Libya, V4); assay: MIC-assay, Mueller-Hinton broth with G-block alginate, 384-well, OD600
[11] = system: Burkholderia cepacia (LMG18941, ATCC-BAA-246); assay: as above
[12] = system: Burkholderia cepacia (1322, V23); assay: as above
[13] = Burkholderia cepacia, Table 5, V23 MDR Burk cep, OligoCF-5/20 0G, read-out: MIC
[14] = Table 5, V23 MDR Burk cep, OligoCF-5/20 +2% G
[15] = Table 5, V23 MDR Burk cep, OligoCF-5/20 +6% G
[16] = Table 5, V23 MDR Burk cep, OligoCF-5/20 +10% G
[17] = Table 6, V23, Experiment 1 (18-03-10), OligoCF-5/20 +6% G
[18] = Table 6, V23, Experiment 1 (18-03-10), OligoCF-5/20 +10% G
[19] = Table 6, V23, Experiment 3 (19-03-10), OligoCF-5/20 +2% G
[20] = Table 6, V23, Experiment 3 (19-03-10), OligoCF-5/20 +10% G
[21] = Acinetobacter baumannii, OligoCF-5/20 0G, read-out: MIC
[22] = Klebsiella pneumoniae, OligoCF-5/20 0G, read-out: MIC
[23] = Table 9, G-block (OligoCF-5/20) 0%
[24] = Table 9, G-block (OligoCF-5/20) 2%
[25] = Table 9, G-block (OligoCF-5/20) 6%
[26] = Table 9, G-block (OligoCF-5/20) 10%
[27] = ATCCBAA246|LMG18941, Table 8, G-block (OligoCF-5/20) 0%
[28] = ATCCBAA246|LMG18941, Table 8, G-block (OligoCF-5/20) 2%
[29] = ATCCBAA246|LMG18941, Table 8, G-block (OligoCF-5/20) 6%
[30] = ATCCBAA246|LMG18941, Table 8, G-block (OligoCF-5/20) 10%
[31] = Table 8, G-block (OligoCF-5/20) 0%
[32] = Table 8, G-block (OligoCF-5/20) 2%
[33] = Table 8, G-block (OligoCF-5/20) 6%
[34] = Table 8, G-block (OligoCF-5/20) 10%

SMILES: C[C@@H](O)[C@H]1C(=O)N2C(C(=O)O)=C(S[C@@H]3CN[C@H](C(=O)N(C)C)C3)[C@H](C)[C@H]12 [Meropenem]
- MIC ([1]; OligoCF-5/20 0G): < 1 mg/L
- MIC ([1]; OligoCF-5/20 +2% G): < 1 mg/L
- MIC ([1]; OligoCF-5/20 +6% G): < 1 mg/L
- MIC ([1]; OligoCF-5/20 +10% G): < 1 mg/L
- MIC ([2]; M-block oligomer 0M): 8 mg/L (≈ 20.9 µM)
- MIC ([2]; M-block oligomer +2% M): 4 mg/L (≈ 10.4 µM)
- MIC ([2]; M-block oligomer +6% M): 2 mg/L (≈ 5.22 µM)
- MIC ([2]; M-block oligomer +10% M): 1 mg/L (≈ 2.61 µM)
- MIC ([3]; OligoCF-5/20 0G): < 1 mg/L
- MIC ([3]; OligoCF-5/20 +2% G): < 1 mg/L
- MIC ([3]; OligoCF-5/20 +6% G): < 1 mg/L
- MIC ([3]; OligoCF-5/20 +10% G): < 1 mg/L
- effectiveness in conjunction with alginate oligomers ([4]; Example 1, KP05 506): inconclusive
- MIC ([4]; OligoCF-5/20 0G): 64 mg/L (≈ 167 µM)
- MIC ([4]; OligoCF-5/20 +2% G): 64 mg/L (≈ 167 µM)
- MIC [5, 13]: 64 mg/L (≈ 167 µM)
- MIC [5, 14]: 64 mg/L (≈ 167 µM)
- MIC [5, 15]: 32^† μg/ml
- MIC [5, 16]: 8^† μg/ml
- MIC [5, 17]: 64^† μg/ml
- MIC [5, 18]: 64^† μg/ml
- MIC [5, 19]: 64^† μg/ml
- MIC [5, 20]: 64^† μg/ml
- MIC ([6]; OligoCF-5/20 0G): 32 mg/L (≈ 83.4 µM)
- MIC ([6]; OligoCF-5/20 +2% G): 32 mg/L (≈ 83.4 µM)
- MIC ([6]; OligoCF-5/20 +6% G): 16 mg/L (≈ 41.7 µM)
- MIC ([6]; OligoCF-5/20 +10% G): 4 mg/L (≈ 10.4 µM)
- MIC [7, 21]: 16 mg/L (≈ 41.7 µM)
- MIC ([7]; OligoCF-5/20 +2% G): 8^† μg/ml
- MIC ([7]; OligoCF-5/20 +6% G): 8^† μg/ml
- MIC ([7]; OligoCF-5/20 +10% G): 4^† μg/ml
- MIC ([8]; OligoCF-5/20 0G): 2 mg/L (≈ 5.22 µM)
- MIC ([8]; OligoCF-5/20 +2% G): 2 mg/L (≈ 5.22 µM)
- MIC ([8]; OligoCF-5/20 +6% G): < 1 mg/L
- MIC ([8]; OligoCF-5/20 +10% G): < 1 mg/L
- MIC [9, 22]: < 0.25 mg/L
- MIC ([9]; OligoCF-5/20 +2% G): <0.25 mg/L
- MIC ([9]; OligoCF-5/20 +6% G): <0.25 mg/L
- MIC ([9]; OligoCF-5/20 +10% G): <0.25 mg/L

SMILES: CN(C)[C@@H]1C(O)=C(C(N)=O)C(=O)[C@@]2(O)C(O)=C3C(=O)c4c(O)cccc4[C@@](C)(O)[C@H]3[C@H](O)[C@@H]12 [Oxytetracycline]
- MIC ([1]; OligoCF-5/20 0G): 8 mg/L (≈ 17.4 µM)
- MIC ([1]; OligoCF-5/20 +2% G): 4 mg/L (≈ 8.69 µM)
- MIC ([1]; OligoCF-5/20 +6% G): 4 mg/L (≈ 8.69 µM)
- MIC ([1]; OligoCF-5/20 +10% G): 2 mg/L (≈ 4.34 µM)
- MIC [10, 23]: 2 mg/L (≈ 4.34 µM)
- MIC [10, 24]: 2 mg/L (≈ 4.34 µM)
- MIC [10, 25]: 2 mg/L (≈ 4.34 µM)
- MIC [10, 26]: 1 mg/L (≈ 2.17 µM)
- MIC ([3]; OligoCF-5/20 0G): 8 mg/L (≈ 17.4 µM)
- MIC ([3]; OligoCF-5/20 +2% G): 8 mg/L (≈ 17.4 µM)
- MIC ([3]; OligoCF-5/20 +6% G): 4 mg/L (≈ 8.69 µM)
- MIC ([3]; OligoCF-5/20 +10% G): 4 mg/L (≈ 8.69 µM)
- MIC [11, 27]: 32 mg/L (≈ 69.5 µM)
- MIC [11, 28]: 16 mg/L (≈ 34.7 µM)
- MIC [11, 29]: 32 mg/L (≈ 69.5 µM)
- MIC [11, 30]: 32 mg/L (≈ 69.5 µM)
- MIC [5, 13]: 256 mg/L (≈ 556 µM)
- MIC ([5]; Burkholderia cepacia, Table 6, V23, Experiment 1 (18-03-10), OligoCF-5/20 0G, read-out: MIC): > 256 mg/L
- MIC ([5]; Burkholderia cepacia, Table 6, V23, Experiment 2 (18-03-10), OligoCF-5/20 0G, read-out: MIC): > 256 mg/L
- MIC ([5]; Burkholderia cepacia, Table 6, V23, Experiment 3 (19-03-10), OligoCF-5/20 0G, read-out: MIC): > 256 mg/L
- MIC [5, 14]: 128^† μg/ml
- MIC [5, 15]: 128^† μg/ml
- MIC [5, 16]: 32^† μg/ml
- MIC ([5]; Table 6, V23, Experiment 1 (18-03-10), OligoCF-5/20 +2% G): 256^† μg/ml
- MIC [5, 17]: 256^† μg/ml
- MIC [5, 18]: 128^† μg/ml
- MIC ([5]; Table 6, V23, Experiment 2 (18-03-10), OligoCF-5/20 +2% G): >256 mg/L
- MIC ([5]; Table 6, V23, Experiment 2 (18-03-10), OligoCF-5/20 +6% G): 256^† μg/ml
- MIC ([5]; Table 6, V23, Experiment 2 (18-03-10), OligoCF-5/20 +10% G): 128^† μg/ml
- MIC [5, 19]: 256^† μg/ml
- MIC ([5]; Table 6, V23, Experiment 3 (19-03-10), OligoCF-5/20 +6% G): 256^† μg/ml
- MIC [5, 20]: 256^† μg/ml
- MIC [7, 21]: 2 mg/L (≈ 4.34 µM)
- MIC ([7]; OligoCF-5/20 +2% G): 2 mg/L (≈ 4.34 µM)
- MIC ([7]; OligoCF-5/20 +6% G): 1^† μg/ml
- MIC ([7]; OligoCF-5/20 +10% G): 4^‡ μg/ml
- MIC ([8]; OligoCF-5/20 0G): 8 mg/L (≈ 17.4 µM)
- MIC ([8]; OligoCF-5/20 +2% G): 4 mg/L (≈ 8.69 µM)
- MIC ([8]; OligoCF-5/20 +6% G): 4 mg/L (≈ 8.69 µM)
- MIC ([8]; OligoCF-5/20 +10% G): 4 mg/L (≈ 8.69 µM)
- MIC [9, 22]: 1 mg/L (≈ 2.17 µM)
- MIC ([9]; OligoCF-5/20 +2% G): 1 mg/L (≈ 2.17 µM)
- MIC ([9]; OligoCF-5/20 +6% G): 1 mg/L (≈ 2.17 µM)
- MIC ([9]; OligoCF-5/20 +10% G): 1 mg/L (≈ 2.17 µM)
- MIC [12, 31]: 128 mg/L (≈ 278 µM)
- MIC [12, 32]: 128 mg/L (≈ 278 µM)
- MIC [12, 33]: 64 mg/L (≈ 139 µM)
- MIC [12, 34]: 64 mg/L (≈ 139 µM)

SMILES: CC[C@H]1OC(=O)[C@H](C)[C@@H](O[C@H]2C[C@@](C)(OC)[C@@H](O)[C@H](C)O2)[C@H](C)[C@@H](O[C@@H]2O[C@H](C)C[C@H](N(C)C)[C@H]2O)[C@](C)(O)C[C@@H](C)/C(=N\OCOCCOC)[C@H](C)[C@@H](O)[C@]1(C)O [Roxithromycin]
- MIC [10, 23]: 128 mg/L (≈ 153 µM)
- MIC [10, 24]: 32 mg/L (≈ 38.2 µM)
- MIC [10, 25]: 16 mg/L (≈ 19.1 µM)
- MIC [10, 26]: 16 mg/L (≈ 19.1 µM)
- MIC [11, 27]: 256 mg/L (≈ 306 µM)
- MIC [11, 28]: 256 mg/L (≈ 306 µM)
- MIC [11, 29]: 256 mg/L (≈ 306 µM)
- MIC [11, 30]: 128 mg/L (≈ 153 µM)
- MIC [12, 31]: 512 mg/L (≈ 612 µM)
- MIC [12, 32]: 512 mg/L (≈ 612 µM)
- MIC [12, 33]: 256 mg/L (≈ 306 µM)
- MIC [12, 34]: 64 mg/L (≈ 76.5 µM)
